Laboratory results: patent US20180169117A1, “PHARMACEUTICAL FORMULATION COMPRISING A SUBSTITUTED PHENYL - (1,3-DIHYDRO-ISOINDOL-2-YL) - METHANONE” (OTSUKA PHARMACEUTICAL CO., LTD., priority 2014, published 2018)
Where two headings read alike, the source gives them in different places.

Assays:
MM-1 cells = settings: 17-AAG treated MM-1 cells; Mitsiades et al. 2006; cited from earlier work
[1] = system: Bortezomib refractory multiple myeloma cell lines; settings: Mitsiades et al. 2006; cited from earlier work
physchem = format: physicochemical; settings: for solubility thermodynamic / solubility: aqueous buffer, thermodynamic from solid, read-out: L-Lactate Salt of Compound of Formula (I) Concentration
Protocol: Buffers were prepared using monobasic and dibasic salts of sodium phosphate in order to achieve the correct buffer concentrations and pH as follows:
The pH of each buffer was the target pH±0.05. Minor adjustments with small amounts of dilute sodium hydroxide were made to both of the 200 mM buffers to meet this criterion.
(§1) Aliquots of 1 g of the L-lactate salt of the compound of formula (I) were weighed into individual 20 ml scintillation vials and 10 ml of each buffer was added to a vial. An additional sample was prepared in deionised water. Samples were covered in aluminium foil to protect from light and mixed using a magnetic stirrer overnight.
(§2) The appearance of each sample was recorded. Samples were transferred to centrifuge tubes and centrifuged at 3500rpm for 15 minutes. The samples prepared using the 200 mM buffers were visually free of undissolved material, but were centrifuged in order to make sure that all samples were treated the same. The supernatants were retained for determination of compound of formula (I) by UV and pH measurement.
(§3) Assay by UV: A calibration curve was prepared using the L-lactate salt of the compound of formula (I) dissolved in deionised water and covering the range 0 to 0.10 mg/ml. Absorbance was determined at 286 nm. Samples were diluted as necessary using deionised water and absorbance determined at 286 nm versus a blank. The content of the compound of formula (I) was determined using the standard curve. All UV readings were taken in duplicate.

[2] = Effect of surfactant (polysorbate 80, Tween) on solubility in phosphate buffer pH 7.2 (Example 6); format: physicochemical; settings: for increase in solubility on addition of Tween: physiological pH, 1-8 (w/v) Tween versus no Tween; for solubility: sodium phosphate buffer, 200 mM phosphate, read-out: Solubility of L-lactate salt of compound of formula (I)
Protocol: Solutions of sodium phosphate buffer at a pH of 7.2 were prepared with and without polysorbate 80 (Tween) and the solubilities of the L-lactate salt of the compound of formula (I) were determined.

[3] = Solubility in deionised water, acetate, succinate and citrate buffers (Example 5); format: physicochemical; settings: thermodynamic from solid, read-out: Solubility L-lactate salt of compound of formula (I)
Protocol: as §1, §2, §3
In a manner analogous to Example 3, formulations were prepared of the L-lactate salt of the compound of formula (I) with acetate, succinate and citrate buffers at different concentrations and at different pH. As shown in the table below, neither the acetate nor citrate buffers were as useful as the phosphate buffer formulation of Example 3, but the succinate buffer gave good L-lactate salt solubility.

[4] = system: vemurafenib sensitive and resistant models of melanoma; settings: Rodriguez-Lopez et al., AACR 2012; cited from earlier work
HSP90 = experiment: Hsp90 inhibition (statement); format: biochemical; settings: no value
refractory solid tumours = settings: including three GIST patients; Mahadevan et al. 2012; cited from earlier work
[5] = system: solid tumours refractory to standard therapy; settings: cited from earlier work
[6] = system: patients with advanced solid tumours; experiment: Phase I study, Two-Consecutive Day (QDx2) dosing schedule; format: in vivo, human
K562 cells = settings: Gone et al. 2002; cited from earlier work

## C=CCNC1=C2C[C@@H](C)C[C@H](OC)[C@H](O)[C@@H](C)/C=C(\C)[C@H](OC(N)=O)[C@@H](OC)/C=C\C=C(/C)C(=O)NC(=CC1=O)C2=O [17-AAG]
MM-1 cells
  cell surface levels of IGF-1R and IL-6R: diminished
[1]
  proliferation: potently inhibits proliferation

## CC(C)c1cc(C(=O)N2Cc3ccc(CN4CCN(C)CC4)cc3C2)c(O)cc1O.C[C@H](O)C(=O)O [(2,4-Dihydroxy-5-isopropyl-phenyl)-[5-(4-methyl-piperazin-1-ylmethyl)-1,3-dihydro-isoindol-2-yl]-methanone L-lactate salt]
physchem; sodium phosphate buffer 50 mM/pH 5.0, pH of supernatant 5.13
  solubility thermodynamic: 77.3 mg/mL
physchem; sodium phosphate buffer 50 mM/pH 5.5, pH of supernatant 5.18
  solubility thermodynamic: 75.9 mg/mL
physchem; sodium phosphate buffer 200 mM/pH 5.0 (fifth line of table), pH of supernatant 4.99
  solubility: ≥ 95.7 mg/mL
physchem; sodium phosphate buffer 200 mM/pH 5.5, pH of supernatant 5.08
  solubility: ≥ 94.8 mg/mL
physchem; sodium phosphate buffer 100 mM/pH 5.5, pH of supernatant 5.10
  L-Lactate Salt of Compound of Formula (I) Concentration: 86.3 mg/mL
physchem; sodium phosphate buffer 200 mM/pH 5.0 (third line of table), pH of supernatant 5.05
  L-Lactate Salt of Compound of Formula (I) Concentration: 89.0 mg/mL
[2]
  increase in solubility on addition of Tween: 1.5 fold
[2]; listed as lactate salt of the compound of formula (I)
  increase in solubility on addition of Tween: approximately 1.5 fold
[2]; aqueous buffer, pH 7.2, Tween 0 % (w/v)
  solubility: 21 mg/mL
[2]; aqueous with cosolvent or surfactant or cyclodextrin, pH 7.2, Tween 1-8 % (w/v)
  solubility: 33 to 34 mg/mL
[3]; acetate buffer, aqueous buffer, 50 mM Acetate pH 5.5, pH 4.87
  solubility: 24.4 mg/mL
[3]; acetate buffer, aqueous buffer, 50 mM Acetate pH 6.0, pH 5.03
  solubility: 19.1 mg/mL
[3]; citrate buffer, aqueous buffer, 50 mM Citrate pH 5.5, pH 5.23
  solubility: 85.6 mg/mL
[3]; citrate buffer, aqueous buffer, 50 mM Citrate pH 6.0, pH 5.55
  solubility: 83.9 mg/mL
[3]; succinate buffer, aqueous buffer, 50 mM Succinate pH 5.5, pH 5.38
  solubility: 78.3 mg/mL
[3]; succinate buffer, aqueous buffer, 50 mM Succinate pH 6.0, pH 5.69
  solubility: 78.3 mg/mL
[3]; succinate buffer, aqueous buffer, 100 mM Succinate pH 6.0, pH 5.76
  solubility: 89.9 mg/mL
[3]; succinate buffer, pH 5.3, aqueous buffer, 100 mM Succinate pH 5.5, pH 5.30
  solubility: 89.2 mg/mL
[3]; Deionised water, pH 5.52
  solubility: 59.5 mg/mL

## CC(C)c1cc(C(=O)N2Cc3ccc(CN4CCN(C)CC4)cc3C2)c(O)cc1O [compound of formula (I), (2,4-Dihydroxy-5-isopropyl-phenyl)-[5-(4-methyl-piperazin-1-ylmethyl)-1,3-dihydro-isoindol-2-yl]-methanone]
[4]
  efficacy in melanoma models: effective
HSP90
  HSP90 inhibition: potent HSP90 inhibitor
Refractory solid tumours
  objective and durable partial response and stable disease: five patients
[5]; GIST patient, 220 mg/m^2 weekly, before and after treatment, Shapiro 2011
  PET scan, metabolic activity of the tumour: substantial reduction in the metabolic activity of the tumour
[5]; twice weekly schedule, further patients, Shapiro et al. 2010
  stable disease for beyond 2 cycles of treatment: five of the original twenty one patients
[5]; twice weekly schedule, one melanoma, one thyroid cancer, Shapiro et al. 2010
  stable disease for at least six months: two of the original twenty one patients
[6]
  tolerability: well tolerated

## Cc1ccc(NC(=O)c2ccc(CN3CCN(C)CC3)cc2)cc1Nc1nccc(-c2cccnc2)n1 [Gleevec]
K562 cells
  apoptosis: induces apoptosis
